Each structure is given as a SMILES string.

From patent publication US9675649B2, “Disialyllacto-N-tetraose (DSLNT) or variants, isomers, analogs and derivatives thereof to prevent or inhibit bowel disease” (The Regents of the University of California, priority 2011, dated 2017) come the findings set out here.

This test relates to NEC model in neonatal rats. Nature of the test: Induction and evaluation of NEC in neonatal rats (formula feeding by oral gavage plus hypoxia). Type of test: in vivo, Sprague-Dawley rats. The settings on record: HMO fractions/subfractions added to formula at their respective concentrations in pooled HMO at 10 mg/ml, 96 h post-partum.

Text: Instead, we tested HMO in a well-established NEC model with neonatal Sprague-Dawley rats. We induced time-pregnant rats by oxytocin and randomized their pups into the different intervention groups. Some pups were left with the dam to serve as breast-fed controls; others were formula-fed by oral gavage twice daily. All pups were exposed to hypoxia thrice daily. On day-of-life 4, we sacrificed the pups and analyzed their intestines for macroscopic and microscopic signs of NEC. The ileum was prepared for H&E staining and evaluated blindly by three independent investigators to determine NEC pathology scores. […] We then isolated HMO from pooled human milk and added them to the formula.
Each HMO fraction and subfraction was tested at concentrations that were based on their relative abundance in pooled HMO at 10 mg/mL, the average concentration in mature human milk. Assuming an average molecular weight of 1,000 g/mol for pooled HMO, 10 mg/mL is equivalent to 10 mM.
Briefly, pregnant time-dated Sprague-Dawley rats were induced at term using Pitocin (1-2 U per animal). Immediately after birth, neonates were randomized into one of the different study groups. Animals in the dam-fed (DF) group remained with the dam. All other animals were separated from the dam, housed in a temperature- and humidity-controlled incubator and orally gavaged with a special rodent formula (0.2 ml) twice daily. […] A 0.5 cm section of the terminal ileum was prepared for H&E staining per standard protocols and scored blindly by three investigators based on morphological changes that included epithelial sloughing, villus oedema, infiltration of neutrophils, apoptosis of villus enterocytes, crypt hyperplasia and misaligned nuclei in the epithelium. […] Pathology scores were plotted for each animal and the mean calculated per group. […] Differences between the groups were calculated by one-way ANOVA with the Kruskal-Wallis test and Dunn's multiple comparison test. […]

For `CC(=O)N[C@H]1[C@H](O[C@H]2[C@@H](O)[C@@H](CO)O[C@@H](O[C@@H]([C@H](O)[C@@H](O)C=O)[C@H](O)CO)[C@@H]2O)O[C@H](CO[C@]2(C(=O)O)C[C@H](O)[C@@H](NC(C)=O)[C@H]([C@H](O)[C@H](O)CO)O2)[C@@H](O)[C@@H]1O[C@@H]1O[C@H](CO)[C@H](O)[C@H](O[C@]2(C(=O)O)C[C@H](O)[C@@H](NC(C)=O)[C@H]([C@H](O)[C@H](O)CO)O2)[C@H]1O` [DSLNT, Disialyllacto-N-tetraose], the ileum pathology score entry is on record as “significantly reduced NEC” (listed as #2), 0.64±0.41 (listed as HMO 2) and “significantly reduced NEC pathology scores” (listed as HMO #2).
